Series [1] relates to HCC827. The experiment in a line: 3D cell proliferation assay (soft agar), HCC827. It counts as cell-based, human. To be noted: Homo sapiens, 3D soft agar. How it is done: (§1) Drug nsl-8 was further subjected to a 3D cell proliferation assay for assessing its potential in inhibiting the growth of NSCLC tumors. The same four NSCLC cell lines used in 2D proliferation assays were grown in soft agar and the drug was added after the agar has solidified. The drug added cells were then incubated several days until colonies have formed in the solvent control. Subsequently, Alamar Blue which was a cell viability reagent was added and the corresponding fluorescence released was measured as an indirect quantification of colony growth in soft agar.
(§2) For each cell line, some 96 well culture plates were prepared. 100 μL of the soft agar bottom layer (0.6% final concentration in complete medium) was poured and left to solidify. 50 μL of the soft agar top layer (0.4% final concentration) containing the corresponding cells and cell number were then added on top, solidified and such 96 well plates were incubated overnight at 37° C. in 10% CO2. Next day, drugs were added at indicated final concentrations into the inner wells of the plate. Subsequently, the assays were incubated in cell culture incubators for the indicated period of time. Finally, the assays were developed using Alamar Blue and upon 3-5 h of incubation at 37 ° C. fluorescence intensity was determined (excitation: 560 nm, emission: 590 nm). […]

Series [2] relates to H460. Description: 2D cell proliferation assay (Alamar Blue), H460. It counts as cell-based, human. To be noted: Homo sapiens, NCI-H460; 2D, H460, 72 h; read-out: IC50. The text has this: (§3) Nsl-8 was subjected to 2D cell proliferation assays using four NSCLC cell lines (A549 (human adenocarcinomic alveolar basal epithelial cells with k-ras gene mutation), H1299 (human non-small cell lung carcinoma cell line with p53 mutation), H460 (human non-small cell lung carcinoma cell line with k-ras gene mutation), and HCC827 (human NSCLC cells with EGFR mutation of deletion from E746 to A750)) and the results were presented in Table 2. There were eight concentrations used for each drug for determining its IC50. […]. Actinomycin D was a chemotherapeutic drug simply used as a quality control for all the experiments.
(§4) In the 2D cell proliferation assay, cells were cultured in DMEM containing 10% FCS and Penicillin/Streptomycin. For the assays, cells were seeded in 150 μL medium on a 96-well cell culture plate and incubated at 37° C. overnight before the compounds were added. Compounds were prepared as predilution which was 16 fold concentrated to the final assay concentration. A day after cell seeding, 10 μL of prediluted compounds was added to the cells (1:16 dilution). Treatment of cells with 0.1% DMSO or 1% DMSO (for the two top concentrations of nsl-8) and 1.0E-05 M Staurosporine was served as high control (100% viability) and low control (0% viability), respectively. Measurement of the impact of compounds on cell viability was performed as follows: 5000 cells (A549 and HCC827) or 2500 cells (H1299 and H460) were seeded in the inner wells of 96-well-plates in 150 μL complete medium. Next day, compounds were added to the medium to reach the final concentration and then incubated at 37° C. in 5% or 10% CO2 depending on the medium for 72 h. Subsequently 10 μL Alamar Blue reagent was added and fluorescence at 590 nm was measured after 5 h incubation at 37° C. in 5% CO2 using a fluorometer.
(§5) Raw data were converted into percent cell viability relative to high control (solvent 0.1% DMSO or 1% DMSO for the two top concentrations of drug nsl-8) and low control (1.0E-05 M Staurosporine), which were set to 100% and 0%, respectively.
(The colour change of resazurin is a common sign of viable cells or microbes.)

Series [3] has as its system four NSCLC cell lines (A549, H1299, H460, HCC827). Description: 3D cell proliferation assay, summary over the NSCLC cell lines. In kind it is cell-based. To be noted: Homo sapiens, span over the four NSCLC cell lines. How it is done: as §1, §2
Series [4] deals with H1299. Description: 2D cell proliferation assay (Alamar Blue), H1299. It counts as cell-based, human. To be noted: Homo sapiens, NCI-H1299; 2D, H1299, 72 h; read-out: IC50.
Text: as §3, §4, §5

In series [5] the test system is A549 implanted tumors. The experiment in a line: Subcutaneous A549 xenograft model, groups 1a/1b, i.p. In kind it is in vivo, BALB/c nude mice. The following applies: 40 mg/kg i.p. once daily, after treatment days 48-52. How it is done:
All experiments were performed using either 5-6 weeks old female BALB/c nude mice (approximate weight: 16-20 g) (A549) or female SCID mice (approximate weight: 16-20 g) (A549 and HCC827). […] Animal behaviour was monitored daily.
At necropsy, animals were killed by cervical dislocation. Primary tumor weights and volumes were determined.
The treatment for groups 1a and 1b (A549 model) animals with drug nsl-8 was started on day 48 and terminated on day 69. The animals were not consecutively treated with nsl-8 during the entire treatment period of 48-68 days. Instead, there was an interruption between treatment days 48-52 and 62-66 (FIG. 4) due to an apparent weight loss observed in the treated animals, an ethical reason which caused the treatment to be suspended. […] However, the animals were able to recover from such a weight loss after several days of cessation of treatment (FIG. 5). After weight loss of treated animals was recovered, a second treatment cycle from days 62-66 was resumed (FIG. 5). This second treatment cycle caused weight loss again (FIG. 5). However, the study groups 1a and 1b were both terminated on day 69 due to the presence of tumor ulceration in some animals. Note that weight loss in animals treated with vehicle was also observed in the final stage of treatment (FIG. 5). We speculated that such a loss might be caused by the presence of 10% DMSO in the prepared vehicle. […]

The subject of series [6] is A549. Description: 3D cell proliferation assay (soft agar), A549. It counts as cell-based, human. To be noted: Homo sapiens, 3D soft agar. How it is done:
as §1, §2

The subject of series [7] is H460. The experiment in a line: 3D cell proliferation assay (soft agar), H460. In kind it is cell-based, human. The following applies: Homo sapiens, NCI-H460, 3D soft agar. How it is done:
as §1, §2

In series [8] the test system is four NSCLC cell lines (A549, H1299, H460, HCC827). The experiment in a line: 2D cell proliferation assay, summary over the NSCLC cell lines. In kind it is cell-based. The following applies: Homo sapiens, span over the four NSCLC cell lines. How it is done: There were eight concentrations used for each drug for determining its IC50. […] Actinomycin D was a chemotherapeutic drug simply used as a quality control for all the experiments.
as §4, with “Compounds were prepared as predilution which was 16 fold concentrated to the final assay concentration.” left out, “h.” for “h. Subsequently 10 μL Alamar Blue reagent was added and fluorescence at 590 nm was measured after 5 h incubation at 37° C. in 5% CO2 using a fluorometer.”
as §5

Each structure is given as a SMILES string.

Regarding `COc1ccc(-c2ccc3cc(C(=O)O)ccc3c2)cc1C12CC3CC(CC(C3)C1)C2` [nsl-8, 6-[3-(1-adamantyl)-4-methoxyphenyl]-2-naphthalenecarboxylic acid], the IC50 in series [1] was 7.2 µM; in series [2], 2 µM; in series [3], 0.99 to 13 µM; in series [4] it was 6.5 µM; in series [6], 0.99 µM; in series [7], 4.9 µM. In series [8], this molecule displayed an IC50 of 2 to 11 µM. Besides, the “weight loss in animals” value in series [5] came out at 16%.

The IC50 is the point on the concentration scale where inhibition reaches its midpoint.

The values are drawn from patent US20160113895A1, “Novel Use of Adapalene in Treating Esophageal Cancer and Gastrointestinal Stromal Tumor” (Biodelight Biotech Inc., priority 2013, published 2016).
